Data on eight molecules can be found in patent US9758526B2, “Quinoline-substituted compound” (TAIHO PHARMACEUTICAL CO., LTD., priority 2013, dated 2017).

One assay concerns the target T1, EGFR (T790M/L858R) (Homo sapiens, UniProt P00533, L858R/T790M).
T1 construct: purchased Carna Biosciences, Inc
Nature of the assay: EGFR (T790M/L858R) kinase inhibitory activity. In kind it is biochemical. As to conditions: for IC50: ATP 1 μM, 25° C. for 120 minutes. The procedure:
The inhibitory activities of the compounds of the present invention against EGFR (T790M/L858R) kinase activity were measured.
(§1) Among the materials of the inhibitory activity measurement, the substrate peptide and the kinase protein were obtained as follows. A peptide with biotinylated N-terminus (biotin-EEPLYWSFPAKKK) was synthesized with reference to FL-Peptide 22, a reagent for LabChip® series of PerkinElmer, Inc. For the kinase protein, a purified recombinant human EGFR (T790M/L858R) protein of Carna Biosciences, Inc. was purchased.
(§2) The inhibitory activity measurement was performed as follows. The compounds of the present invention were individually dissolved in dimethyl sulfoxide (DMSO), and serial dilutions of these compounds were prepared using DMSO. Subsequently, a solution containing the substrate peptide (final concentration: 250 nM), magnesium chloride (final concentration: 10 mM), manganese chloride (final concentration: 10 mM), and ATP (final concentration: 1 μM) in a buffer solution for kinase reaction (Carna Biosciences, Inc.) was mixed with the dilutions of the compounds (final concentration of DMSO upon kinase reaction: 2.5%) or DMSO (final concentration: 2.5%). EGFR (T790M/L858R) protein was further added thereto, and the mixtures were incubated at 25° C. for 120 minutes to carry out a kinase reaction. EDTA was added thereto to a final concentration of 24 mM to thereby terminate the reaction. A phosphorylated thyrosine detection solution containing europium (Eu)-labeled anti-phosphorylated tyrosine antibody PT66 (PerkinElmer, Inc.) and SureLight APC-SA (PerkinElmer, Inc.) was added to the reaction mixtures, and the mixtures were allowed to stand at room temperature for 2 hours or more. For the background, a sample to which EDTA was added before addition of EGFR (T790M/L858R) protein was incubated at 25° C. for 120 minutes, using DMSO instead of the DMSO solution of the compound. The detection solution was also added to this sample, and the mixture was allowed to stand for 2 hours or more. Finally, for all of the test samples, the amount of fluorescence at the time of irradiation of excitation light having a wavelength of 337 nm was measured at dual wavelengths of 620 nm and 665 nm by PHERAstar FS (BMG LABTECH), and a ratio of the fluorescence amounts at the two wavelengths was obtained as data.
(§3) Based on the above rates, phosphorylation inhibition rates (%) were calculated for the samples to which various concentrations of the compound solutions were added. Finally, the obtained reaction inhibition rates (%) at the respective concentrations were plotted for each compound, and the IC50 value (nM), which is a compound concentration at which phosphorylation by EGFR (T790M/L858R) is inhibited by 50%, was determined using XLfit curve-fitting software (IDBS).

In another assay the target is T2, EGFR (d746-750/T790M) (Homo sapiens, UniProt P00533, DEL746-750/T790M).
T2 construct: purchased Carna Biosciences, Inc
T2 sequence (P00533 with tags, fused parts or gaps DEL746-750/T790M limits assumed): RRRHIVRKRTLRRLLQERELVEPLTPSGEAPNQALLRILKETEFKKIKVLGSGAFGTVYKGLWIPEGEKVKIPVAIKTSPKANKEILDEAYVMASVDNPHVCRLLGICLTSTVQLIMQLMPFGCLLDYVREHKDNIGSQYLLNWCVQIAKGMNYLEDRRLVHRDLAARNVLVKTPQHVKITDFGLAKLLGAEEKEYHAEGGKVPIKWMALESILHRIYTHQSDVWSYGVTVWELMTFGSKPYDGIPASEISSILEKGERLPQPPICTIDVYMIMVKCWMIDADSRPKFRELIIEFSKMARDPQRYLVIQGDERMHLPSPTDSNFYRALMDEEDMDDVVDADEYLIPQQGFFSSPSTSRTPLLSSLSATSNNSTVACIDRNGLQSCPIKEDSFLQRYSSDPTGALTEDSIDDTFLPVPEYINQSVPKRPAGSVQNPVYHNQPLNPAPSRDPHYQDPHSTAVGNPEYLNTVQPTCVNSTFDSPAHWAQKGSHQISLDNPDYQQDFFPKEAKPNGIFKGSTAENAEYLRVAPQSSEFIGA
Nature of the assay: EGFR (d746-750/T790M) kinase inhibitory activity. In kind it is biochemical. As to conditions: ATP 1.5 μM. The procedure: as §1, §2, §3
The inhibitory activities of the compounds of the present invention against EGFR (d746-750/T790M) kinase activity were measured.
The materials, the measurement method, and the data analysis method were substantially the same as those shown in the above description regarding “Measurement of EGFR (T790M/L858R) Kinase Inhibitory Activity,” except that a purified recombinant human EGFR (d746-750/T790M) protein purchased from Carna Biosciences, Inc. was used as the kinase protein, and the measurement was performed with an ATP final concentration of 1.5 μM. Finally, the IC50 value (nM) of each compound with respect to EGFR (d746-750/T790M) was determined by data analysis.

In a further assay the target is T3, EGFR (L858R) (Homo sapiens, UniProt P00533, L858R).
T3 construct: purchased Carna Biosciences, Inc
T3 sequence (P00533 25-1210 L858R): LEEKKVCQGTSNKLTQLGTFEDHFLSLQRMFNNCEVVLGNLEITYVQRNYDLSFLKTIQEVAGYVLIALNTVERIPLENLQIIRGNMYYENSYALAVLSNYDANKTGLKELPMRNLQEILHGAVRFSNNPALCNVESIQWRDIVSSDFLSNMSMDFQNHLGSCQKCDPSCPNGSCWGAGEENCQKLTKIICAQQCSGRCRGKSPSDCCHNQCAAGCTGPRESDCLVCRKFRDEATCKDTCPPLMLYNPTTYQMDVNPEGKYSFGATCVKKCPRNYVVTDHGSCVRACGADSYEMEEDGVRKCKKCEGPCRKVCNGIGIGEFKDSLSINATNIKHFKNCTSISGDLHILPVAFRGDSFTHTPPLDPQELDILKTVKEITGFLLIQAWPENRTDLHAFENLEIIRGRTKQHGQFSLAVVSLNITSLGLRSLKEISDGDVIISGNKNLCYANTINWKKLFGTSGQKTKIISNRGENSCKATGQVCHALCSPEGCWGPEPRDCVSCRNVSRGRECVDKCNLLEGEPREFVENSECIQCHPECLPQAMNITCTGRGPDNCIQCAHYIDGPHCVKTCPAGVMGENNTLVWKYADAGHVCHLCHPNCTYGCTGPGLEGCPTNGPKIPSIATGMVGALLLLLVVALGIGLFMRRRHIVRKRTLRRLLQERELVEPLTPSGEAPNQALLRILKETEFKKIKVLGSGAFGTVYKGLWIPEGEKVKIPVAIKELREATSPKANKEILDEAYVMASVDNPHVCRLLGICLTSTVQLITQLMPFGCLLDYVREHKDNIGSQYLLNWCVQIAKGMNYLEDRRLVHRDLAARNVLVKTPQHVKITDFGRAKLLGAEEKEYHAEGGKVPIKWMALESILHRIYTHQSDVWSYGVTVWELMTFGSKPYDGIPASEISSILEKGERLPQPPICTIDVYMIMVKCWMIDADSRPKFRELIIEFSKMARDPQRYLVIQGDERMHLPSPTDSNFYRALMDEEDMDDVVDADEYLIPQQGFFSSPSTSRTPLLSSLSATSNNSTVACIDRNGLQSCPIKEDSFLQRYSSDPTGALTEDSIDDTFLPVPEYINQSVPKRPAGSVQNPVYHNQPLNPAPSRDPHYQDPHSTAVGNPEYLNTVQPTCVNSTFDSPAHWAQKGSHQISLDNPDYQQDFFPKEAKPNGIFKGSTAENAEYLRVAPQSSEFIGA
The experiment in a line: EGFR (L858R) kinase inhibitory activity. The format is biochemical. As to conditions: ATP 4 μM. The procedure: as §1, §2, §3
The inhibitory activities of the compounds of the present invention against EGFR (L858R) kinase activity were measured.
The materials, the measurement method, and the data analysis method were substantially the same as those shown in the above description regarding “Measurement of EGFR (T790M/L858R) Kinase Inhibitory Activity,” except that a purified recombinant human EGFR (L858R) protein purchased from Carna Biosciences, Inc. was used as the kinase protein, and the measurement was performed with ATP at a final concentration of 4 μM. Finally, the IC50 value (nM) of each compound with respect to EGFR (L858R) was determined by data analysis.

Another assay addresses T4, EGFR (d746-750) (Homo sapiens, UniProt P00533, DEL746-750).
T4 construct: purchased Carna Biosciences, Inc
The experiment in a line: EGFR (d746-750) kinase inhibitory activity. As to conditions: ATP 5 μM, kinase reaction 90 minutes. In kind it is biochemical. As for the experimental part:
as §1, §2, §3
The inhibitory activities of the compounds of the present invention against EGFR (d746-750) kinase activity were measured.
The materials, the measurement method, and the data analysis method were substantially the same as those shown in the above description regarding “Measurement of EGFR (T790M/L858R) Kinase Inhibitory Activity,” except that a purified recombinant human EGFR (d746-750) protein purchased from Carna Biosciences, Inc. was used as the kinase protein, the measurement was performed with ATP at a final concentration of 5 μM, and the incubation for the kinase reaction was performed for 90 minutes. Finally, the IC50 value (nM) of each compound with respect to EGFR (d746-750) was determined by data analysis.

For assay [1], the system named is NCI-H1975 expressing EGFR (T790M/L858R). Nature of the assay: Growth inhibition, NCI-H1975 expressing EGFR (T790M/L858R). In kind it is cell-based. As to conditions: Homo sapiens, NCI-H1975, 72 h; cultured three days, CellTiter-Glo. As for the experimental part:
(§4) (1) A human […] lung cancer cell line NCI-H1975 expressing EGFR (T790M/L858R), (2) a human non-small cell lung cancer cell line HCC827 expressing EGFR (d746-750), and (3) a human epithelioid cancer cell line A431 expressing EGFR (WT) were each suspended in complete growth medium recommended by ATCC. The cell suspensions were seeded in each well of a 384-well flat microplate or a 96-well flat plate, and cultured in an incubator containing 5% carbon dioxide gas at 37° C. for one day. Each compound of the present invention was dissolved in DMSO, and serial dilutions of the test compound were prepared using DMSO (to a concentration 500 times the final concentration). The DMSO solution of the test compound or DMSO was diluted with complete growth medium, and the resulting solution was added to each well of the cell culture plate so that the final concentration of DMSO was 0.2%. Then, the cells were cultured in an incubator containing 5% carbon dioxide gas at 37° C. for three days. The number of cells was measured before the addition of the DMSO solution of the test compound, as well as after addition and culture by using a CellTiter-Glo Assay® (produced by Promega) according to a protocol recommended by Promega.
(§5) For each cell, the cell growth inhibition rates of the wells to which the test compounds at various concentrations were added were calculated by the following formula. Then, the obtained inhibition rates (%) at the respective concentrations were plotted for each test compound, and the GI50 value (nM), which is a test compound concentration at which the cell growth can be inhibited by 50%, was determined using XLfit curve-fitting software (IDBS). • Cell Growth Inhibition Rate (%)=(C−T)/(C−CO)×100 • T: Luminescence intensity of well cultured for three days after addition of the test compound solution • C: Luminescence intensity of well cultured for three days after addition of DMSO • C0: Luminescence intensity of well before addition of the test compound solution

Assay [2] has as its system HCC827 expressing EGFR (d746-750). Nature of the assay: Growth inhibition, HCC827 expressing EGFR (d746-750). The format is cell-based. Particulars: Homo sapiens, HCC827, 72 h; cultured three days, CellTiter-Glo. The procedure:
as §4, §5

For assay [3], the system named is A431 expressing EGFR (WT). The experiment in a line: Growth inhibition, A431 expressing EGFR (WT). In kind it is cell-based. As to conditions: Homo sapiens, A-431, 72 h; cultured three days, CellTiter-Glo. The procedure:
as §4, §5

In a further assay the target is T5, EGFR (WT) (Homo sapiens, UniProt P00533).
T5 construct: expressing a cytoplasmic domain of human EGFR (WT) with its N-terminus fused to a FLAG tag; FLAG (N); made in house; host or cells: insect Sf9 cells, baculovirus expression system
T5 sequence (P00533 669-1210 limits assumed): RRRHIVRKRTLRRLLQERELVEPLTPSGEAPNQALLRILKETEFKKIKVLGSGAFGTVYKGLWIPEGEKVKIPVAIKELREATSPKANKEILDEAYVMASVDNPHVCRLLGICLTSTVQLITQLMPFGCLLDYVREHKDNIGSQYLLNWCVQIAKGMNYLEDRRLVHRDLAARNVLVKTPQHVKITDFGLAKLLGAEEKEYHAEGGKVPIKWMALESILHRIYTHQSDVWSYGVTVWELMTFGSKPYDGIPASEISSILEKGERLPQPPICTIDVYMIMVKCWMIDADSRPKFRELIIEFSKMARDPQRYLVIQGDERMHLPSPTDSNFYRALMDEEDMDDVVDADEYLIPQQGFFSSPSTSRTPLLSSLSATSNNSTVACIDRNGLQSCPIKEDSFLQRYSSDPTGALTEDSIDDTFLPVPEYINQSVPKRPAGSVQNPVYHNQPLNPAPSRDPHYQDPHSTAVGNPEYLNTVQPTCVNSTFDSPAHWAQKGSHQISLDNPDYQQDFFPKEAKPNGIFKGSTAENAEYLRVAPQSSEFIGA
Nature of the assay: EGFR (WT) kinase inhibitory activity. In kind it is biochemical. Particulars: substrate peptide 500 nM. The procedure: as §1, §2, §3
The inhibitory activities of the compounds of the present invention against EGFR (WT) kinase activity were measured.
The materials, the measurement method, and the data analysis method were substantially the same as those shown in the above description regarding “Measurement of EGFR (T790M/L858R) Kinase Inhibitory Activity,” except that a kinase protein prepared by expressing a cytoplasmic domain of human EGFR (WT) with its N-terminus fused to a FLAG tag in insect Sf9 cells using a baculovirus expression system and then purifying it with anti-FLAG antibody agarose (Sigma-Aldrich) was used as the kinase protein, the final concentration of the substrate peptide was 500 nM, and the final concentration of ATP was […]. Finally, the IC50 value (nM) of each compound with respect to EGFR (WT) was determined by data analysis.

T1 sequence (P00533 25-1210 T790M/L858R): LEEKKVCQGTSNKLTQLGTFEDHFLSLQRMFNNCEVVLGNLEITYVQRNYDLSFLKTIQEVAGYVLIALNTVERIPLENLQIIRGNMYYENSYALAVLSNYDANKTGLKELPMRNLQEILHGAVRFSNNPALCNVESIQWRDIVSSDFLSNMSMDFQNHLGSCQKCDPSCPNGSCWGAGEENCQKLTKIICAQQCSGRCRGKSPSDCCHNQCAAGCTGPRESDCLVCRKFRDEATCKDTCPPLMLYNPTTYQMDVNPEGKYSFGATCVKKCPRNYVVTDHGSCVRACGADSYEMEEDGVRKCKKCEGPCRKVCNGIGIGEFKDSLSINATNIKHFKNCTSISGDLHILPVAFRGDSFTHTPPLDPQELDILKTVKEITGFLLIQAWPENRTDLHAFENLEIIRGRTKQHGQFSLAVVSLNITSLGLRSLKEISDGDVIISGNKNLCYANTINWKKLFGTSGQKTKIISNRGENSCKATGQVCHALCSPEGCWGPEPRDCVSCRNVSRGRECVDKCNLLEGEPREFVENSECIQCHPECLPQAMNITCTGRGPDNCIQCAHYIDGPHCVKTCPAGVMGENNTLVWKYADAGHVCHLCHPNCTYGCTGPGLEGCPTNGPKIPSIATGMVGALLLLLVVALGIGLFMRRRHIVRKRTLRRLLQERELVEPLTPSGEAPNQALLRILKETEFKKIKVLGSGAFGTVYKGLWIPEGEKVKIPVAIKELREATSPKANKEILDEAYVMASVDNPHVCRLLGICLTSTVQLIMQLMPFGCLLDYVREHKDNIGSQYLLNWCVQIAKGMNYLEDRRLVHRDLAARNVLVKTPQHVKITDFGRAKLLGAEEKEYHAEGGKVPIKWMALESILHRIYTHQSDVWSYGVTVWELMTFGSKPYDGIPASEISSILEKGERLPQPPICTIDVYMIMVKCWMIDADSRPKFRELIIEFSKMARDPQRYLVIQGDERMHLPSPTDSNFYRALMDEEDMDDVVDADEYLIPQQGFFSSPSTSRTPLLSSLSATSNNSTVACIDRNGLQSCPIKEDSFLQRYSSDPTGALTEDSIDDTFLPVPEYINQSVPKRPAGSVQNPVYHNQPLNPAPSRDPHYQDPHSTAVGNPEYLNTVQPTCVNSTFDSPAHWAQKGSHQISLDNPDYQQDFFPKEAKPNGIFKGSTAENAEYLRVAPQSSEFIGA
T4 sequence (P00533 with tags, fused parts or gaps DEL746-750 limits assumed): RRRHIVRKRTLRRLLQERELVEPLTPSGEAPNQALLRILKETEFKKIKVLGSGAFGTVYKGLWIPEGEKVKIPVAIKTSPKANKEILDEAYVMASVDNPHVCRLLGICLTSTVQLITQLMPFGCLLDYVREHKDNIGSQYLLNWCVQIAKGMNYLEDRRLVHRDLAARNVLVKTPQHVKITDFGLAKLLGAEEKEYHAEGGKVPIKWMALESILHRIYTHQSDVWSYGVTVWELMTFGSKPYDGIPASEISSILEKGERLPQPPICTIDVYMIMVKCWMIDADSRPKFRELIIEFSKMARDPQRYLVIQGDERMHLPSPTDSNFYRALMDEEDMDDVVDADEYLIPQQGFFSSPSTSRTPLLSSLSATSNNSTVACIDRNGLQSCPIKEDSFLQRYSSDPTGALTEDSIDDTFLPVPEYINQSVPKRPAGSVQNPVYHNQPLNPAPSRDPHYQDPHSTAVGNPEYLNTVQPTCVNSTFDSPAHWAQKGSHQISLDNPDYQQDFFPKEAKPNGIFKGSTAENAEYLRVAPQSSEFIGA

`C=CC(=O)N(C)[C@@H]1Cn2c(c(-c3cnc4ccccc4c3)c3c(N)ncnc32)C1=C` [Example 26, (S)—N-(4-amino-6-methylene-5-(quinolin-3-yl)-7,8-dihydro-6H-pyrimido[5,4-b]pyrrolizin-7-yl)-N-methylacrylamide]: the IC50 at EGFR (T790M/L858R) is 1 nM; against EGFR (d746-750/T790M), 0.31 nM; at EGFR (L858R), 1.7 nM; against EGFR (d746-750), 1.1 nM. Also, the figures for the GI50 in assay [1], in assay [2] and in assay [3] were 150 nM, 18.4 nM and 4700 nM, respectively.

In the case of `C=C1c2c(-c3cnc4ccccc4c3)c3c(N)ncnc3n2C[C@H]1NC(=O)/C=C\Cl` [Example 6, (S,Z)—N-(4-amino-6-methylene-5-(quinolin-3-yl)-7,8-dihydro-6H-pyrimido[5,4-b]pyrrolizin-7-yl)-3-chloroacrylamide], the IC50 against EGFR (T790M/L858R) is 0.24 nM; against EGFR (d746-750/T790M), under 0.15 nM; on EGFR (L858R), 0.45 nM; on EGFR (d746-750), 0.24 nM; against EGFR (WT), 4.9 nM. For the same molecule, the values for the GI50 in assay [1], in assay [2] and in assay [3] were 54 nM, 3.3 nM and 520 nM, respectively.

As for `C=CC(=O)N(C)[C@@H]1CC(=C)c2c(-c3cnc4ccccc4c3)c3c(N)ncnc3n2C1` [Example 22, (R)—N-(4-amino-6-methylene-5-(quinolin-3-yl)-6,7,8,9-tetrahydropyrimido[5,4-b]indolizin-8-yl)-N-methylacrylamide], the concentration for half-maximal inhibition (IC50) on EGFR (T790M/L858R) was 0.35 nM; against EGFR (d746-750/T790M), 0.23 nM; on EGFR (L858R) it was 0.37 nM; at EGFR (d746-750), 0.33 nM; at EGFR (WT), 5.5 nM. In addition, the GI50 in assay [1] amounted to 56 nM; in assay [2], 5.7 nM; in assay [3], 1500 nM.

Turning to `C=CC(=O)N[C@H]1Cn2c(c(-c3cnc4ccccc4c3)c3c(N)ncnc32)C1=C` [Example 25, (R)—N-(4-amino-6-methylene-5-(quinolin-3-yl)-7,8-dihydro-6H-pyrimido[5,4-b]pyrrolizin-7-yl)acrylamide], the IC50 at EGFR (T790M/L858R) amounted to 36 nM; at EGFR (d746-750/T790M), 11 nM; against EGFR (L858R), 100 nM; at EGFR (d746-750), 59 nM. The 50% growth inhibitory concentration (GI50) in assay [1] was 2500 nM; in assay [2], 260 nM; in assay [3], over 10000 nM.

In the case of `C=CC(=O)N[C@H]1C=Cc2c(-c3cnc4ccccc4c3)c3c(N)ncnc3n2CC1` [Example 28, (R)—N-(4-amino-5-(quinolin-3-yl)-9,10-dihydro-8H-pyrimido[5′,4′:4,5]pyrrolo[1,2-a]azepin-8-yl)acrylamide], the IC50 is 0.3 nM on EGFR (T790M/L858R), under 0.5 nM against EGFR (d746-750/T790M), 0.49 nM at EGFR (L858R) and 0.27 nM at EGFR (d746-750). Also, the 50% growth inhibitory concentration (GI50) was 48 nM in assay [1], 14 nM in assay [2] and 1200 nM in assay [3].

Take `C=CC(=O)N[C@H]1C=Cc2c(-c3cnc4ccccc4c3)c3c(N)ncnc3n2C1` [Example 27, (S)—N-(4-amino-5-(quinolin-3-yl)-8,9-dihydropyrimido[5,4-b]indolizin-8-yl)acrylamide]: the IC50 was 0.34 nM on EGFR (T790M/L858R), 0.25 nM at EGFR (d746-750/T790M), 0.35 nM on EGFR (L858R) and 0.38 nM against EGFR (d746-750). The GI50 in assay [1] is 110 nM; in assay [2], 15 nM; in assay [3], 1000 nM.

For the molecule `Nc1ncnc2c1c(-c1cccc(NC(=O)c3ccccc3)c1)c1n2CCCC1` [Comparative Example 1, N-(3-(4-amino-6,7,8,9-tetrahydropyrimido[5,4-b]indolizin-5-yl)phenyl)benzamide, reference compound], on EGFR (T790M/L858R) (summary for EGFR (L858R), (d746-750), (T790M/L858R), (d746-750/T790M), for the comparative compound all EGFR kinases tested), the “inhibitory activity against EGFR kinases (in words)” value was “almost no inhibitory activity”.

Consider `C=CC(=O)N[C@H]1CC(C)c2c(-c3cnc4ccccc4c3)c3c(N)ncnc3n2C1` (stereo partly shown) [Example 29], for which the concentration for half-maximal inhibition (IC50) against EGFR (T790M/L858R) is 14 nM; at EGFR (d746-750/T790M), 8.4 nM; against EGFR (L858R), 19 nM; on EGFR (d746-750), 21 nM. For the same molecule, the GI50 in assay [1] was 1600 nM; in assay [2], 89 nM; in assay [3], over 10000 nM.
